Assay results from US9011925B2, “Method for preparing polysaccharide nanocomposite particles and uses of the same” (China Medical University, priority 2011, dated 2015).
≈ marks a conversion by molar mass, not a printed value.

Experiments:
p53 protein = details: HepG2/A2 cells; cited from earlier work
[1] = Surface potential analysis (Zetasizer, DLS); format: physicochemical; details: diluted 50-folds with water, sonicated 1 hour
Protocol: [Surface Potential Analysis]
The samples were diluted 50-folds with water, and sonicated for 1 hour by using an ultrasonic vibration machine. Then, the samples dissolved in water were analyzed by using a Zetasizer machine (Malvern ZS90) based on the principle of dynamic light scattering (DLS) to observe the surface potential and particle size distribution of the particles.

[2] = tested on: Colo 205 human rectum tumor cells; test: Cytotoxicity assay (MTT); format: cell-based; details: colo 205 cells, 72th hour, read-out: 1050 (50% concentration of inhibition)
Protocol: Colo 205 human rectum tumor cells were inoculated in a 24-well culture dish (1×10^4 cells/well), and incubated in an incubator at 37° C. under 5% CO2 for 24 hours. Then, the active component (KCY-Tai 1 and KCY-Tai 2) or polysaccharide nanocomposite particles (KCY-Tai 1-CNPs and KCY-Tai 2-CNPs 2) with different concentrations (0.39 to 12.5 μg/ml) was respectively added into the culture dish, and the cells were incubated for 24, 72, and 120 hours. The cells were washed with 1×PBS twice. MTT (3-(4,5-dimethyl thiazole-2-yl)-2,5-diphenyl tetrazolium bromide) (0.5 mg/ml) was added to the culture dish (200 μl/well), and the dish was placed in an incubator at 37° C. under 5% CO2. After incubating for 4 hours, MTT was sucked out and removed, and […] dimethyl sulfoxide (DMSO) was added into each well. After incubating on the shaker for 30 minutes, […] of the sample was sucked out from each well and transferred into a 96-well culture dish. The absorbance of the sample was determined under the wavelength of 570 nm by an enzyme-linked immunosorbent assay (ELISA) reader.

[3] = tested on: lung cancer cells, breast cancer cells, and rectal cancer cells; details: cited from earlier work
HepG2/A2 = details: cited from earlier work

Row | Surface potential (mV) [1] [mV] | Compound | p53 protein activation (p53 protein) | IC50 [2] [µg/mL] | cytotoxicity effects on lung, breast and rectal cancer cells [3] | cell cycle effect (HepG2/A2; accumulation of cyclin B1/cdc2 complex) | apoptosis markers (micronucleation, DNA fragmentation, caspase-3) (HepG2/A2) | effect on mitotic spindle (immunofluorescence staining) (HepG2/A2)
1 | −22.5 | O=C1OCC(=C/c2ccc3c(c2)OCO3)/C1=C\c1ccc2c(c1)OCO2 [KCY-Tai 1] | activation of p53 protein | 3 (≈ 8.56 µM) | significant cytotoxicity effects | arrested at G2/M phase | activation of caspase-3 | interrupt the formation of mitotic spindle
2 | −11.8 | COc1cc(/C=C2/C(=O)OC/C2=C/c2ccc3c(c2)OCO3)cc(OC)c1OC [KCY-Tai 2] | – | 0.7 (≈ 1.77 µM) | significant cytotoxicity effects | – | – | –
